Measurements taken from US10770169B2, “Method of providing a treatment to a subject based on a dynamic pathway map” (THE REGENTS OF THE UNIVERSITY OF CALIFORNIA, priority 2010, dated 2020).

Columns and labels:
[1] = system: panel of 55 breast cancer cell lines; test: Cell growth inhibition assay (Cell Titer Glo, 72 h, 9 doses; GI50, TGI, LC50); format: cell-based, human; conditions: value is the negative log10 of mol/L
[2] = system: luminal, basal, claudin-low and ERBB2AMP breast cancer cell lines; test: Associations of clinically relevant subtypes and response (non-parametric ANOVA or t-test on GI50 ranks); format: cell-based, human
Summary of the method: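 GI50 values were compared between cell-line subtype groups by non-parametric ANOVA or t-test on ranks. P-values from three test sets were combined and FDR-corrected. Significant three-group effects were followed by post-hoc comparison of each group against all others, and FDR p<0.20 counted as significant.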

CCNCCCCNCCCCNCCCCNCCCCNCC=CCNCCCCNCCCCNCCCCNCCCCNCC.Cl.Cl.Cl.Cl.Cl.Cl.Cl.Cl.Cl.Cl (stereo in doubt) [CGC-11144]
GI50 ([1]; 600MPE cell line, censored GI50 values): 6.49 | GI50 ([1]; AU565 cell line, censored GI50 values): 6.31 | GI50 ([1]; BT20 cell line, censored GI50 values): 6.52 | GI50 ([1]; BT474 cell line, censored GI50 values): 6.02 | GI50 ([1]; BT483 cell line, censored GI50 values): 6.25 | GI50 ([1]; BT549 cell line, censored GI50 values): 6.65 | GI50 ([1]; CAMA1 cell line, censored GI50 values): 6.40 | GI50 ([1]; HCC38 cell line, censored GI50 values): 6.81 | GI50 ([1]; HCC70 cell line, censored GI50 values): 6.55 | GI50 ([1]; HCC202 cell line, censored GI50 values): 6.26 | GI50 ([1]; HCC1143 cell line, censored GI50 values): 6.88 | GI50 ([1]; HCC1187 cell line, censored GI50 values): 6.02 | GI50 ([1]; HCC1395 cell line, censored GI50 values): 6.20 | GI50 ([1]; HCC1419 cell line, censored GI50 values): 6.30 | GI50 ([1]; HCC1428 cell line, censored GI50 values): 6.33 | GI50 ([1]; HCC1500 cell line, censored GI50 values): 6.65 | GI50 ([1]; HCC1806 cell line, censored GI50 values): 6.71 | GI50 ([1]; HCC1937 cell line, censored GI50 values): 6.76 | GI50 ([1]; HCC1954 cell line, censored GI50 values): 6.56 | GI50 ([1]; HCC2185 cell line, censored GI50 values): 6.60 | GI50 ([1]; HCC3153 cell line, censored GI50 values): 6.72 | GI50 ([1]; LY2 cell line, censored GI50 values): 5.18 | GI50 ([1]; MCF7 cell line, censored GI50 values): 6.33 | GI50 ([1]; MDAMB134VI cell line, censored GI50 values): 6.38 | GI50 ([1]; MDAMB157 cell line, censored GI50 values): 6.96 | GI50 ([1]; MDAMB175VII cell line, censored GI50 values): 6.75 | GI50 ([1]; MDAMB231 cell line, censored GI50 values): 4.66 | GI50 ([1]; MDAMB361 cell line, censored GI50 values): 5.78 | GI50 ([1]; MDAMB415 cell line, censored GI50 values): 6.78 | GI50 ([1]; MDAMB436 cell line, censored GI50 values): 6.06 | GI50 ([1]; MDAMB453 cell line, censored GI50 values): 6.28 | GI50 ([1]; MDAMB468 cell line, censored GI50 values): 6.17 | GI50 ([1]; SKBR3 cell line, censored GI50 values): 5.30 | GI50 ([1]; SUM149PT cell line, censored GI50 values): 6.53 | GI50 ([1]; SUM159PT cell line, censored GI50 values): 6.60 | GI50 ([1]; SUM185PE cell line, censored GI50 values): 6.68 | GI50 ([1]; SUM225CWN cell line, censored GI50 values): 5.45 | GI50 ([1]; SUM1315MO2 cell line, censored GI50 values): 5.69 | GI50 ([1]; cell line 600MPE): 6.49 | GI50 ([1]; cell line AU565): 6.31 | GI50 ([1]; cell line BT20): 6.52 | GI50 ([1]; cell line BT474): 6.02 | GI50 ([1]; cell line BT483): 6.25 | GI50 ([1]; cell line BT549): 6.65 | GI50 ([1]; cell line CAMA1): 6.40 | GI50 ([1]; cell line HCC38): 6.81 | GI50 ([1]; cell line HCC70): 6.55 | GI50 ([1]; cell line HCC202): 6.26 | GI50 ([1]; cell line HCC1143): 6.88 | GI50 ([1]; cell line HCC1187): 6.02 | GI50 ([1]; cell line HCC1395): 6.20 | GI50 ([1]; cell line HCC1419): 6.30 | GI50 ([1]; cell line HCC1428): 6.33 | GI50 ([1]; cell line HCC1500): 6.65 | GI50 ([1]; cell line HCC1806): 6.71 | GI50 ([1]; cell line HCC1937): 6.76 | GI50 ([1]; cell line HCC1954): 6.56 | GI50 ([1]; cell line HCC2185): 6.60 | GI50 ([1]; cell line HCC3153): 6.72 | GI50 ([1]; cell line LY2): 5.18 | GI50 ([1]; cell line MCF7): 6.33 | GI50 ([1]; cell line MDAMB134V): 6.38 | GI50 ([1]; cell line MDAMB157): 6.96 | GI50 ([1]; cell line MDAMB175V): 6.75 | GI50 ([1]; cell line MDAMB231): 4.66 | GI50 ([1]; cell line MDAMB361): 5.78 | GI50 ([1]; cell line MDAMB415): 6.78 | GI50 ([1]; cell line MDAMB436): 6.06 | GI50 ([1]; cell line MDAMB453): 6.28 | GI50 ([1]; cell line MDAMB468): 6.17 | GI50 ([1]; cell line SKBR3): 5.30 | GI50 ([1]; cell line SUM52PE): 6.79 | GI50 ([1]; cell line SUM149PT): 6.53 | GI50 ([1]; cell line SUM159PT): 6.60 | GI50 ([1]; cell line SUM185PE): 6.68 | GI50 ([1]; cell line SUM225CWN): 5.45 | GI50 ([1]; cell line SUM1315MO): 5.69 | GI50 ([1]; cell line T47D): 6.96 | GI50 ([1]; cell line UACC812): 6.78 | GI50 ([1]; cell line UACC893): 6.60 | GI50 ([1]; cell line ZR751): 6.48 | association of response with ERBB2 amplification [2]: negatively associated with ERBB2 amplification | Subtype specificity ([2]; Table 6, most sensitive subtype, FDR p<0.20): not ERBB2AMP
